Measured values: ChEMBL document CHEMBL4483862, “Open-source discovery of chemical leads for next-generation chemoprotective antimalarials” (2018)

Test system: Plasmodium berghei
Assay: Luciferase/luciferin-expressing antifolate-resistant parasites were used to infect a culture of HepG2 cells that were pre-incubated with compounds. Infected hepatocytes emit light due to the luciferase reaction. Assay results are presented as the percent inhibition of light emission compared to control. […]
Assay type: functional
Conditions: sporozoite; for IC50: read-out: LUCIFERASE INFECTION ASSAY - IC50; for IC90: read-out: LUCIFERASE INFECTION ASSAY - IC90

Structure (SMILES): Cc1ccc(-c2nnc(NC(=O)c3cccc(S(=O)(=O)N4CCc5ccccc54)c3)[nH]2)cc1
- IC50: 8.49 µM
- IC90: > 10 µM

Structure (SMILES): N#Cc1cccnc1N1CCN(C(=O)c2cc(-c3ccccc3)nn2-c2ccccc2)CC1
- IC50: > 10 µM
- IC90: > 10 µM

Structure (SMILES): CCC(=O)c1ccc(OCCCCn2cnc3ccccc32)cc1
- IC50: > 10 µM
- IC90: > 10 µM

Structure (SMILES): COc1ccc(C(=O)N2CCN(C(c3ccc(F)cc3)c3ccc(F)cc3)CC2)cc1S(=O)(=O)NCCN(C)C
- IC50: > 10 µM
- IC90: > 10 µM

Structure (SMILES): Cc1c(C(=O)Nc2nc(CN3CCCC(C)C3)cs2)oc2ccc(Cl)cc12 (stereo not given)
- IC50: > 10 µM
- IC90: > 10 µM

Structure (SMILES): CC(OC(=O)c1ccccc1O)C(N)=O (stereo not given)
- IC50: > 10 µM
- IC90: > 10 µM

Structure (SMILES): COc1ccc(NC(=O)c2ccc3c(c2)C(=O)N(c2ccccc2Cl)C3=O)cn1
- IC50: > 10 µM
- IC90: > 10 µM

Structure (SMILES): CCCCNC(=O)CN1CCN(C(=O)Cc2c(C)nc3ccccc3c2C)CC1
- IC50: > 10 µM
- IC90: > 10 µM

Structure (SMILES): COc1ccc(Cl)cc1NC(=O)C(C)NCC(c1ccccc1)c1c[nH]c2ccccc12 (stereo not given)
- IC50: 6.47 µM
- IC90: > 10 µM

Structure (SMILES): O=C(CSc1ncnc2ccccc12)NN1C(=O)NC(c2ccccc2)(c2ccccc2)C1=O
- IC50: > 10 µM
- IC90: > 10 µM

Structure (SMILES): CCc1cccc2c(C(=O)CN3CCC(C(=O)Nc4ccc5c(c4)OCO5)CC3)c[nH]c12
- IC50: > 10 µM
- IC90: > 10 µM

Structure (SMILES): O=C(c1ccc(Cl)cc1)N1CCCC(C(=O)N2CCN(Cc3ccc4c(c3)CCO4)CC2)C1 (stereo not given)
- IC50: > 10 µM
- IC90: > 10 µM

Structure (SMILES): CN(C)CCOCCOc1c(Cl)cc(Cl)cc1Cl
- IC50: > 10 µM
- IC90: > 10 µM

Structure (SMILES): CN(CC(=O)N1CCN(C(c2ccc(F)cc2)c2ccc(F)cc2)CC1)C1=NS(=O)(=O)c2ccccc21
- IC50: > 10 µM
- IC90: > 10 µM

Structure (SMILES): CCn1nc(C(=O)OCC(=O)Nc2cc(S(=O)(=O)N3CCCCC3)ccc2Cl)c2ccccc2c1=O
- IC50: > 10 µM
- IC90: > 10 µM

Structure (SMILES): Cc1nc2sccc2c(=O)n1NC(=O)c1ccc2ccccc2n1
- IC50: > 10 µM
- IC90: > 10 µM

Structure (SMILES): COc1ccc(N(C)S(=O)(=O)c2cccc(C(=O)Nc3ccc(Br)c(C(F)(F)F)c3)c2)cc1
- IC50: > 10 µM
- IC90: > 10 µM

Structure (SMILES): CCCCCn1nc(C(=O)N2CCN(Cc3nc4ccccc4s3)CC2)c2ccccc2c1=O
- IC50: > 10 µM
- IC90: > 10 µM

Structure (SMILES): Cc1nn(Cc2nc3ccccc3s2)c(C)c1S(=O)(=O)N(C)Cc1ccco1
- IC50: > 10 µM
- IC90: > 10 µM

Structure (SMILES): COc1ccc2cc(C3(C)NC(=O)N(Cc4nc(N)nc(Nc5ccc(F)cc5)n4)C3=O)ccc2c1 (stereo not given)
- IC50: > 10 µM
- IC90: > 10 µM

Structure (SMILES): CCCC(=O)Nc1ccc(-c2csc(NC(=O)c3cc(C)oc3C)n2)cc1
- IC50: > 10 µM
- IC90: > 10 µM

Structure (SMILES): CC(CO)NCCOCCOc1ccc(Cl)cc1Cc1ccccc1 (stereo not given)
- IC50: > 10 µM
- IC90: > 10 µM

Structure (SMILES): O=C(Cn1c(=O)ccn(Cc2ccccc2)c1=O)N1CCC(n2c(=O)[nH]c3ccccc32)CC1
- IC50: > 10 µM
- IC90: > 10 µM

Structure (SMILES): O=C(CN1CCN(C(=O)C23CC4CC(CC(C4)C2)C3)CC1)c1ccc[nH]1
- IC50: > 10 µM
- IC90: > 10 µM

Structure (SMILES): CCOC(=O)c1cnn(-c2ccc(C(=O)N(Cc3ccc(F)cc3)C3CC3)cc2)c1C
- IC50: > 10 µM
- IC90: > 10 µM

Structure (SMILES): Cc1nn(CC(=O)NC(C)c2cc3ccccc3o2)c(C)c1S(=O)(=O)N1CCc2ccccc21 (stereo not given)
- IC50: > 10 µM
- IC90: > 10 µM

Structure (SMILES): O=S(=O)(c1ccc(Br)s1)N(c1ccc2c(c1)OC1(CCCC1)O2)S(=O)(=O)c1ccc(Br)s1
- IC50: 4.98 µM
- IC90: > 10 µM

Structure (SMILES): CCC(OC(=O)c1cc2ccccc2[nH]1)C(=O)Nc1cc(C)on1 (stereo not given)
- IC50: > 10 µM
- IC90: > 10 µM

Structure (SMILES): CCCCC(CC)Cn1c(SCc2nc(N)nc(N)n2)nnc1-c1ccc(Cl)cc1 (stereo not given)
- IC50: > 10 µM
- IC90: > 10 µM

Structure (SMILES): O=C(Nc1ccccc1)N1CCC(C(=O)N2CCN(C(=O)c3ccccc3Cl)CC2)CC1
- IC50: > 10 µM
- IC90: > 10 µM

Structure (SMILES): CCOC(=O)C1=C(CN2CCN(C(c3ccc(F)cc3)c3ccc(F)cc3)CC2)NC(=O)NC1CC (stereo not given)
- IC50: > 10 µM
- IC90: > 10 µM

Structure (SMILES): O=c1[nH]nc(SCc2ccc([N+](=O)[O-])cc2)n1CC1CCCO1 (stereo not given)
- IC50: > 10 µM
- IC90: > 10 µM

Structure (SMILES): O=C(CSc1nnc(Nc2ccccc2)s1)Nc1ccccc1N1CCCC1
- IC50: > 10 µM
- IC90: > 10 µM

Structure (SMILES): O=C(c1ccc(N2CCCC2=O)cc1)N1CCN(C2CCS(=O)(=O)C2)CC1 (stereo not given)
- IC50: > 10 µM
- IC90: > 10 µM

Structure (SMILES): Cc1cccc2c(=O)n(CC(=O)NCCCCOc3ccc(F)cc3)cnc12
- IC50: > 10 µM
- IC90: > 10 µM

Structure (SMILES): O=C(Cc1csc(N2CCCC2=O)n1)Nc1nc(-c2ccc3c(c2)CCCC3)cs1
- IC50: > 10 µM
- IC90: > 10 µM

Structure (SMILES): c1ccc(-c2csc3nc(CN4CCOCC4)nc(NCc4cnn(-c5ccccc5)c4)c23)cc1
- IC50: > 10 µM
- IC90: > 10 µM

Structure (SMILES): Cc1cc(C)c(CNC(=O)N(C)Cc2cn(-c3ccccc3)nc2-c2ccccc2)c(=O)[nH]1
- IC50: > 10 µM
- IC90: > 10 µM

Structure (SMILES): COc1ccc2c(COC(=O)c3[nH]c(C)c(C(C)=O)c3C)cc(=O)oc2c1
- IC50: > 10 µM
- IC90: > 10 µM

Structure (SMILES): O=C(NC1CCS(=O)(=O)c2ccccc21)C1CCN(c2ncc(C(F)(F)F)cc2Cl)CC1 (stereo not given)
- IC50: > 10 µM
- IC90: > 10 µM
